Converted amounts (≈) assume the structure as drawn. Read-outs that look alike come from different tables or passages of the source.
Tests used:
Klebsiella pneumoniae 39 [1] = experiment: Protecting effect against experimental infections in mice; type: in vivo; settings: Klebsiella pneumoniae, 39, sc, 96 h; ICR mice, i.p. challenge 8 × 10^6 cells/mouse, s.c. one hour after challenge, survival after four days
Protocol: (§1) Male ICR strain mice aged 4 weeks, each weighing 18.5-21.5 g. were used in groups of 10 mice. The test bacteria were cultured overnight at 37° C. on Trypticase-soy agar and then suspended in 5% mucin to obtain the suspension corresponding to each challenge cells. Mice were inoculated intraperitoneally with 0.5 ml. of the suspension. A solution of test compound was given subcutaneously to the mice in various dosage one hour after the challenge. The ED50 values were calculated from the number of surviving mice for each dosage after four days of observation.

Escherichia coli 54 [2] = experiment: as above; type: in vivo; settings: Escherichia coli, 54, sc, 96 h; ICR mice, i.p. challenge 1.1 × 10^7 cells/mouse, s.c. one hour after challenge, survival after four days
Protocol: as §1

Proteus rettgeri 24 [3] = experiment: as above; type: in vivo; settings: Providencia rettgeri, 24, sc, 96 h; ICR mice, i.p. challenge 9.9 × 10^6 cells/mouse, s.c. one hour after challenge, survival after four days
Protocol: as §1

Serratia Marcescens 58 [4] = experiment: MIC against the infecting strain; type: cell-based; settings: 20 h
Protocol: (§2) In vitro antibacterial activity was determined by the two-fold agar-plate dilution method as described below.
(§3) One loopful of the 100-fold dilution of an overnight culture of each test strain in Trypticase-soy broth was streaked on heart infusion agar (HI-agar) containing graded concentrations of the test compound and incubated at 37° C. for 20 hours. The minimal inhibitory concentration (MIC) was expressed in μg/ml.
(§4) ^*2 100fold dilution of the overnight

Klebsiella pneumoniae 39 [5] = experiment: MIC against the infecting strain; type: cell-based; settings: Klebsiella pneumoniae, 39, 20 h
Protocol: as §2, §3, §4

Escherichia coli 54 [6] = experiment: MIC against the infecting strain; type: cell-based; settings: Escherichia coli, 54, 20 h
Protocol: as §2, §3, §4

Proteus rettgeri 24 [7] = experiment: MIC against the infecting strain; type: cell-based; settings: Providencia rettgeri, 24, 20 h
Protocol: as §2, §3, §4

Serratia Marcescens 58 [8] = experiment: Protecting effect against experimental infections in mice; type: in vivo; settings: sc, 96 h, ICR mice, i.p. challenge 1.2 × 10^7 cells/mouse, s.c. two divisional doses at 1 hr. and 3 hrs. after infection
Protocol: as §1
^*3 treated with two divisional doses at 1 hr. and 3 hrs. after […]

Acute toxicity in rats = experiment: Acute toxicity in rats; parameters: species or system rat (ICL-SD strain); settings: rat, in vivo, 7 days observation
Protocol: Ten male and 10 female rats aged 6 weeks (ICL-SD strain) were used per group. Test compound dissolved in distilled water was given subcutaneously and intravenously to the animals. […] The LD50 values were calculated from the number of dead animals by the Litchfield-Wilcoxon method.

[9] = test system: Pseudomonus aeruginosa NCTC-10490; experiment: In vitro antibacterial activity, two-fold agar-plate dilution method; type: cell-based; settings: HI-agar, 37° C., 20 hours, 100-fold diluted overnight culture
Protocol: as §3, with “In vitro antibacterial activity was determined by the two-fold agar-plate dilution method as described below. One” for “One”

Klebsiella pneumoniae 20 = experiment: as above; type: cell-based; settings: HI-agar, 37° C., 20 hours, 100-fold diluted overnight culture
Protocol: as §3, with “In vitro antibacterial activity was determined by the two-fold agar-plate dilution method as described below. One” for “One”

[10] = test system: Staphylococcus aureus 209P JC-1; experiment: as above; type: cell-based; settings: HI-agar, 37° C., 20 hours, 100-fold diluted overnight culture
Protocol: as §3, with “In vitro antibacterial activity was determined by the two-fold agar-plate dilution method as described below. One” for “One”

[11] = test system: Escherichia coli. NIHJ JC-2; experiment: as above; type: cell-based; settings: NIHJJC2, HI-agar, 37° C., 20 hours, 100-fold diluted overnight culture
Protocol: as §3, with “In vitro antibacterial activity was determined by the two-fold agar-plate dilution method as described below. One” for “One”

Serratia marcescens 35 = experiment: as above; type: cell-based; settings: HI-agar, 37° C., 20 hours, 100-fold diluted overnight culture
Protocol: as §3, with “In vitro antibacterial activity was determined by the two-fold agar-plate dilution method as described below. One” for “One”

Proteus mirabilis 18 = experiment: as above; type: cell-based; settings: HI-agar, 37° C., 20 hours, 100-fold diluted overnight culture
Protocol: as §3, with “In vitro antibacterial activity was determined by the two-fold agar-plate dilution method as described below. One” for “One”

[12] = test system: Proteus vulgaris IAM-1025; experiment: as above; type: cell-based; settings: IAM1025, HI-agar, 37° C., 20 hours, 100-fold diluted overnight culture
Protocol: as §3, with “In vitro antibacterial activity was determined by the two-fold agar-plate dilution method as described below. One” for “One”

[13] = inoculum size 10^0 (overnight culture), read-out: MIC
[14] = inoculum size 10^0 (overnight culture)
[15] = inoculum size 10^-2 (100fold dilution of the overnight culture)

CO/N=C(\C(=O)NC1C(=O)N2C(C(=O)O)=C(COC(C)=O)CSC12)c1csc(N)n1 (stereo not drawn) [Reference, 7[2(2-Amino-4-thiazolyl)-2-methoxyiminoacetamido] cephalospolanic acid (syn isomer), reference compound]
ED50 (Klebsiella pneumoniae 39 [1]): 0.995 mg/kg | ED50 (Escherichia coli 54 [2]): 2.8 mg/kg | ED50 (Proteus rettgeri 24 [3]): 1.17 mg/kg | MIC (Serratia Marcescens 58 [4]): 1.56 µg/mL (≈ 3.43 µM) | MIC (Serratia Marcescens 58 [4]; [13]): 50 µg/mL (≈ 110 µM) | MIC (Klebsiella pneumoniae 39 [5]; [14]): 3.13 µg/mL (≈ 6.87 µM) | MIC (Klebsiella pneumoniae 39 [5]; [15]): 0.05 µg/mL (≈ 0.11 µM) | MIC (Escherichia coli 54 [6]; [14]): 3.13 µg/mL (≈ 6.87 µM) | MIC (Escherichia coli 54 [6]; [15]): 0.1 µg/mL (≈ 0.22 µM) | MIC (Proteus rettgeri 24 [7]; [14]): 50 µg/mL (≈ 110 µM) | MIC (Proteus rettgeri 24 [7]; [15]): 0.1 µg/mL (≈ 0.22 µM) | ED50 (Serratia Marcescens 58 [8]): 31.4 mg/kg

CO/N=C(\C(=O)NC1C(=O)N2C(C(=O)O)=CCSC12)c1csc(N)n1 (stereo not drawn) [Compound 1, 7-[2-(2-aminothiazol-4-yl)-2-methoxyiminoacetamido]-3-cephem-4-carboxylic acid (syn isomer)]
ED50 (Klebsiella pneumoniae 39 [1]): < 0.98 mg/kg | ED50 (Escherichia coli 54 [2]): 0.95 mg/kg | ED50 (Proteus rettgeri 24 [3]): 0.39 mg/kg | MIC (Serratia Marcescens 58 [4]; [13]): 25 µg/mL (≈ 65.2 µM) | MIC (Serratia Marcescens 58 [4]; inoculum size 10^-2 (100fold dilution of the overnight culture), read-out: MIC): 0.39 µg/mL (≈ 1.02 µM) | MIC (Klebsiella pneumoniae 39 [5]; [14]): 0.39 µg/mL (≈ 1.02 µM) | MIC (Klebsiella pneumoniae 39 [5]; [15]): ≤ 0.025 µg/mL | MIC (Escherichia coli 54 [6]; [14]): 0.78 µg/mL (≈ 2.03 µM) | MIC (Escherichia coli 54 [6]; [15]): 0.05 µg/mL (≈ 0.13 µM) | MIC (Proteus rettgeri 24 [7]; [14]): 1.56 µg/mL (≈ 4.07 µM) | MIC (Proteus rettgeri 24 [7]; [15]): ≤ 0.025 µg/mL | LD50 at 168 h (Acute toxicity in rats; iv, female, i.v., read-out: LD50 i.v.): > 8000 mg/kg | LD50 at 168 h (Acute toxicity in rats; iv, male, i.v., read-out: LD50 i.v.): ~8000 mg/kg | LD50 at 168 h (Acute toxicity in rats; sc, female, s.c., read-out: LD50 s.c.): > 8000 mg/kg | LD50 at 168 h (Acute toxicity in rats; sc, male, s.c., read-out: LD50 s.c.): > 8000 mg/kg | MIC [9]: 0.39 µg/mL (≈ 1.02 µM) | MIC (Klebsiella pneumoniae 20): ≤ 0.025 µg/mL | MIC [10]: 6.25 µg/mL (≈ 16.3 µM) | MIC [11]: ≤ 0.025 µg/mL | MIC (Serratia marcescens 35): 1.56 µg/mL (≈ 4.07 µM) | MIC (Proteus mirabilis 18): ≤ 0.025 µg/mL | MIC [12]: ≤ 0.025 µg/mL | ED50 (Serratia Marcescens 58 [8]): 3.56 mg/kg

— patent publication US4298529A, “Alkoxyimino dioxy butyric acid derivatives” (Fujisawa Pharmaceutical Co., Ltd., priority 1978, dated 1981)
